Source: patent publication US20240336617A1, “Substituted Bimane Compounds and Methods of Use Thereof” (THE TRUSTEES OF THE UNIVERSITY OF PENNSYLVANIA, priority 2023, published 2024)

Key:
αS fibrils [1] = target: T1, αS fibrils (Homo sapiens, UniProt P37840); test: Fluorescence spectra with αS fibrils; type: binding; details: for Stokes shift: difference between λex and λem; for λem: PFF 50 μM; for turn on of fluorescence in the presence of αS PFFs: in vitro generated αS PFFs; for λem, maximum emission wavelength: bound dye; for Stokes shift in the presence of PFFs / emission peaks / emission maxima in the presence of PFFs: αS PFFs
T1 construct: intein-His6 (C, cleaved yes); made in house; host or cells: Escherichia coli BL21
Protocol: Fluorescence measurements were performed using a PTI QuantaMaster™ 40 fluorescence spectrometer. Fluorescence spectra of 10 μM probes (concentrated stock solution prepared as 10 mM in DMSO) (7b, 7c, 7d, 7e, 7f, 7g and 7h) in PBS buffer were measured by excitation at their absorbance maximum wavelength in the absence and presence of 50 μM αS fibrils (stock solution 100 μM αS fibrils in PBS buffer).
Fluorescence spectra with αS fibrils. Fluorescence measurements were performed using a PTI QuantaMaster 40 fluorescence spectrometer. Fluorescence spectra of 10 μM probes (concentrated stock solution prepared as 10 mM in DMSO) (5b-5f and 5h) in PBS buffer were measured by excitation at their absorbance maximum wavelength in the absence and presence of 50 μM αS fibrils (stock solution 100 μM αS fibrils in PBS buffer). […] FIGS. 77A-77F show fluorescence spectra of probes (5b-5f and 5h) with and without αS fibrils. Final concentrations of probes and αS fibrils were 10 μM and 50 μM, respectively. Emission spectra collected at each dye's maximum absorption wavelength. Ex/Em slit widths: 3 nm/3 nm. […] Absorbance is shown in FIG. 78A and FIG. 78B, whereas FIG. 78C and FIG. 78D show excitation spectra of probes 5j and 5k with and without αS fibrils. Final probe and fibrils concentrations were 10 μM and 50 μM, respectively. […] Emission wavelengths were 575 nm for 5j, 580 nm for 5k. Ex/Em slit widths: 3 nm/3 nm. […] Black line indicates incident light (αS fibrils without probe) and blue line indicates sample (αS fibrils with probe). Excitation at λexc=435 nm for 5j and λexc=463 nm for 5k and spectral collection (400-800 nm). Final concentrations of the probe and αS fibrils are the 100 μM. Ex/Em slit widths: 5 nm/5 nm.

αS fibrils [2] = target: T1, αS fibrils; test: Absorbance spectra with αS fibrils; type: physicochemical; details: for λabs / λabs, maximum absorption wavelength: dye 10 μM; for ε / E, molar absorptivity (ε): measured at λabs; for λabs, maximum absorption wavelength / E, molar absorptivity (ε): presence of αS PFFs (+); for λabs, maximum absorption wavelength: PFFs 50 μM, mixture of bound and unbound dye; for increase in molar absorptivity with αS fibrils: presence versus absence of αS fibrils
Protocol: (§1) Absorption measurements were performed using Thermo Scientific Genesys 150 UV Vis spectrometer. Absorption spectra of 10 μM probes (concentrated stock solution prepared as 10 mM in DMSO) (7j, 7k, 7l, and 7m) in PBS buffer were measured in the absence and presence of 50 μM αS fibrils (stock solution 100 μM αS fibrils in PBS buffer).
as §1, with “(5j” for “(7j, 7k, 7l,”, “5k)” for “7m)”

αS fibrils [3] = target: T1, αS fibrils; test: Fluorescent QY measurements with αS fibrils; type: physicochemical; details: for Relative Brightness: ratio of ε•QY in the presence and absence of PFFs; for increase in QY with αS fibrils: presence versus absence of αS fibrils; for increase in brightness in the presence of PFFs: αS PFFs
Protocol: (§2) For each QY measurement, the incident excitation light spectrum was collected with 100 μL of probes (100 μM) in PBS buffer. After measuring the incident light intensity, probes (7j-7m) were added to the αS fibrils (100 μM) from a concentrated stock solution (10 mM in DMSO) to a final concentration of 100 μM and the new spectrum (fluorescence intensity and new incident light intensity) was collected. Using the JASCO Quantum Yield Software, the dye QY was calculated by dividing the dye fluorescence intensity by the difference in incident light intensity in the presence and absence of fibrils.
as §2, with “[…]” for “μL”, “(5j and 5k)” for “(7j-7m)”

[4] = Molar absorptivity determination; type: physicochemical; details: for E, molar absorptivity (ε): absence of αS PFFs (−), measured at λabs;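 on all read-outs here: molar absorptivity derived from UV-Vis absorbance spectra recorded for each derivative on a spectrometer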
Protocol: The absorbance spectrum of each derivative (150 μL) was measured on a Thermo Scientific Genesys 150 UV-Vis spectrometer, using 50:50 ACN/PBS as a blank.
Molar absorptivity determination. […] The absorbance spectrum of each derivative (150 μL) was measured on a Thermo Scientific Genesys 150 UV-Vis spectrometer, using 50:50 ACN/PBS as a blank.

[5] = tested on: αS fibrils versus Aβ1-42 fibrils; test: Amyloid selectivity by plate reader, αS versus Aβ1-42 fibrils; type: binding; parameters: fluorescence turn-on with αS relative to Aβ1-42: dose or concentration left out as unconfirmed; details: for fluorescence turn on with αS relative to Aβ1-42: 5 μM fibril concentrations, probe 1 μM
Protocol: Experiments were performed on the Tecan Spark in Greiner 96 well flat black ½ area plates using the following parameters: excitation and emission band widths 5 nm, lag time 0 μs, integration time 40 μs. A 10 mM DMSO stock solution of probes (7j-7m) and 100 μM stock of αS fibrils were used in the study described herein.

[6] = Absorbance measurements (UV-Vis); details: for Absorbance Wavelength: ACN:PBS buffer (50:50 v/v); for λabs, maximum absorption wavelength: absence of αS PFFs (−), dye 10 μM; for λabs: ACN/PBS
Protocol: Samples were individually diluted to the final concentration of 25 μM (500 μL) using 50:50 acetonitrile in phosphate buffered saline (ACN/PBS). The absorbance spectrum of each derivative (150 μL) was measured on a Thermo Scientific Genesys 150 UV-Vis spectrometer, using 50:50 ACN/PBS as a blank.

[7] = Fluorescent quantum yield (QY) measurements; type: physicochemical; details: absence of αS PFFs (−); 100 μM dye
αS fibrils [8] = target: T1, αS fibrils; test: Fractionation (total, supernatant, pellet) of αS fibrils with probe; type: binding; details: T, S, P fractions
[9] = presence of αS PFFs, 100 μM dye and PFFs
[10] = ACN/PBS buffer (1:1 v/v), pH 7.4
[11] = in ACN, at maximum absorption wavelength
[12] = 25 μM in ACN/PBS buffer (1:1 v/v), pH 7.4
[13] = presence of αS PFFs (+), dye 10 μM, PFFs 50 μM
[14] = presence of αS PFFs (+), 100 μM dye and PFFs
[15] = λex/λem = 435/575 nm for 5j and 463/580 nm for 5k

Stokes shift (αS fibrils [1]; presence of αS PFFs) [nm] | λem (αS fibrils [1]; presence of αS PFFs, dye 10 μM) [nm] | λabs (αS fibrils [2]; absence of αS PFFs) [nm] | ε (αS fibrils [2]; absence of αS PFFs) [M⁻¹ cm⁻¹] | λabs (αS fibrils [2]; presence of αS PFFs, PFF 50 μM) [nm] | ε (αS fibrils [2]; presence of αS PFFs) [M⁻¹ cm⁻¹] | Fluorescence QY (αS fibrils [3]; absence of αS PFFs, 100 μM dye) [%] | Fluorescence QY (αS fibrils [3]; [9]) [%] | Relative Brightness (αS fibrils [3]) | Molar Absorptivity (ε) [4, 10] [M⁻¹ cm⁻¹] | Molar Absorptivity (ε) [4, 11] [M⁻¹ cm⁻¹] | Absorbance λmax ([6]; 25 μM in ACN) [nm] | Absorbance λmax [6, 12] [nm] | Stokes shift (αS fibrils [1]; [13]) [nm] | λem, maximum emission wavelength (αS fibrils [1]; [13]) [nm] | Stokes shift in the presence of PFFs (αS fibrils [1]) [nm] | λabs, maximum absorption wavelength (αS fibrils [2]) [nm] | E, molar absorptivity (ε) (αS fibrils [2]) [M⁻¹ cm⁻¹] | SMILES | fluorescence turn on with αS relative to Aβ1-42 [5] [fold] | turn on of fluorescence in the presence of αS PFFs (αS fibrils [1]) | also measured
146 | 570 | 370 | 17205 | 356 | 49869 | 0.21 | 29.2 | 403 | 29562 | 28890 | 378 | 386 | – | – | – | – | – | Cc1c(C)n2c(/C=C/c3ccc(N4CCOCC4)cc3)c(C)c(=O)n2c1=O [Compound 7k, (E)-2,3,6-trimethyl-5-(4-morpholinostyryl)-1H,7H-pyrazolo[1,2-a]pyrazole-1,7-dione] | 13 | – | –
140 | 575 | 372 | 15385 | 359 | 45956 | 0.17 | 20.7 | 364 | 30834 | 32091 | 378 | 385 | 140 | 575 | 140 | 359 | 45956 | Cc1c(C)n2c(/C=C/c3ccc(N)cc3)c(C)c(=O)n2c1=O [Compound 7j, (E)-3-(4-aminostyryl)-2,5,6-trimethyl-1H,7H-pyrazolo[1,2-a]pyrazole-1,7-dione] | – | significant turn-on of orange fluorescence | emission peaks / emission maxima in the presence of PFFs (αS fibrils [1]; listed as 5j): 575 nm; increase in molar absorptivity with αS fibrils (αS fibrils [2]): 3 fold; Fluorescence QY [7]: 0.17%; Fluorescence QY (αS fibrils [3]; [14]): 20.7%; increase in QY with αS fibrils (αS fibrils [3]): 122 fold; Relative Brightness (αS fibrils [3]; [15]): 364; increase in brightness in the presence of PFFs (αS fibrils [3]): 364 fold; E, molar absorptivity (ε) [4]: 15385 M⁻¹ cm⁻¹; Absorbance Wavelength ([6]; Table S14): 385 nm; λabs, maximum absorption wavelength [6]: 372 nm
136 | 620 | 416 | 19024 | 412 | 52234 | 0.20 | 27.9 | 383 | 36689 | 28639 | 410 | 436 | – | – | – | – | – | Cc1c(C)n2c(/C=C/C=C/c3ccc(N(C)C)cc3)c(C)c(=O)n2c1=O [Compound 7m, 3-((1E,3E)-4-(4-(dimethylamino)phenyl)buta-1,3-dien-1-yl)-2,5,6-trimethyl-1H,7H-pyrazolo[1,2-a]pyrazole-1,7-dione] | 15 | – | concentration-dependent shift in the emission maximum with αS fibrils (αS fibrils [1]): binding at multiple sites; fractionation of αS fibrils with probe (αS fibrils [8]): retained its fluorescence in the pellet fraction more than 2a; λabs [6]: 436 nm; Absorbance Wavelength ([6]; Table 11): 418 nm
117 | 580 | 393 | 20071 | 386 | 43864 | 0.15 | 32.7 | 476 | 30420 | 24742 | 402 | 418 | 117 | 580 | 117 | 386 | 43864 | Cc1c(C)n2c(/C=C/c3ccc(N(C)C)cc3)c(C)c(=O)n2c1=O [Compound 7l, (E)-3-(4-(dimethylamino)styryl)-2,5,6-trimethyl-1H,7H-pyrazolo[1,2-a]pyrazole-1,7-dione] | 5 | significant turn-on of orange fluorescence | emission maximum bound to αS (αS fibrils [1]): 584 nm; emission peaks / emission maxima in the presence of PFFs (αS fibrils [1]): 580 nm; increase in molar absorptivity with αS fibrils (αS fibrils [2]): 2.2 fold; Fluorescence QY [7]: 0.15%; Fluorescence QY (αS fibrils [3]; [14]): 32.7%; increase in QY with αS fibrils (αS fibrils [3]): 218 fold; Relative Brightness (αS fibrils [3]; [15]): 476; increase in brightness in the presence of PFFs (αS fibrils [3]): 476 fold; fractionation of αS fibrils with probe (αS fibrils [8]): selectively binds to the fibrils; E, molar absorptivity (ε) [4]: 20071 M⁻¹ cm⁻¹; fluorescence turn-on with αS relative to Aβ1-42 [5]: 5.2 fold; λabs [6]: 418 nm; Absorbance Wavelength ([6]; Table S14): 418 nm; λabs, maximum absorption wavelength [6]: 393 nm
